Where two headings read alike, the source gives them in different places.
What was measured:
[1] = target: T1, HIV-1 protease 8 Mutant (Human immunodeficiency virus type 1 group M subtype B, UniProt P12497); assay: HIV enzyme inhibition assay (Ki), 8 Mutant variant; type: biochemical; settings: drug-resistant protease variant 8 Mutant
T1 construct: onto NL4-3 wild-type protease on a pET11a plasmid with codon optimization for protein expression in Escherichia coli; A Q7K mutation was included to prevent autoproteolysis

[2] = target: HIV-1 protease KY24 (Human immunodeficiency virus type 1, UniProt P12497); settings: read-out: Ki KY24; drug-resistant protease variant KY24
[3] = target: T2, HIV-1 protease 11 Mutant (Human immunodeficiency virus type 1 group M subtype B, UniProt P12497); assay: HIV enzyme inhibition assay (Ki), 11 Mutant variant; type: biochemical; settings: drug-resistant protease variant 11 Mutant
T2 construct: onto NL4-3 wild-type protease on a pET11a plasmid with codon optimization for protein expression in Escherichia coli; A Q7K mutation was included to prevent autoproteolysis

[4] = test system: wild-type HIV-1; assay: HIV antiviral assay (293T / TZM-BL luciferase); type: cell-based; settings: read-out: Antiviral WT EC50
[5] = target: T3, HIV-1 protease 10 Mutant (Human immunodeficiency virus type 1 group M subtype B, UniProt P12497); assay: HIV enzyme inhibition assay (Ki), 10 Mutant variant; type: biochemical; settings: drug-resistant protease variant 10 Mutant
T3 construct: onto NL4-3 wild-type protease on a pET11a plasmid with codon optimization for protein expression in Escherichia coli; A Q7K mutation was included to prevent autoproteolysis

[6] = target: T4, HIV-1 protease I50V/A71V (Human immunodeficiency virus type 1 group M subtype B, UniProt P12497, A559V/I538V/Q495K); assay: HIV enzyme inhibition assay (Ki), I50V/A71V variant; type: biochemical; settings: drug-resistant protease variant I50V/A71V
T4 construct: onto NL4-3 wild-type protease on a pET11a plasmid; made in house

[7] = target: T5, HIV-1 protease I84V (Human immunodeficiency virus type 1 group M subtype B, UniProt P12497, I572V/Q495K); assay: HIV enzyme inhibition assay (Ki), I84V variant; type: biochemical; settings: drug-resistant protease variant I84V
T5 construct: onto NL4-3 wild-type protease on a pET11a plasmid; made in house

[8] = target: T6, HTLV-1 protease (Human T-cell leukemia virus type I, UniProt Q82134, L40I); assay: biochemical
[9] = target: T6, HTLV-1 protease; settings: read-out: Ki against HTLV-1 protease; 1 μM protein, MA/CA FRET substrate

T6 sequence (Q82134 entry or part of it L40I): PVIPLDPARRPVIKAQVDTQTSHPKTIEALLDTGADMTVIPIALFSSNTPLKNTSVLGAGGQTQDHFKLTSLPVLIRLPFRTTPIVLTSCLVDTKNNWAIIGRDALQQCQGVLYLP

Compound	Ki [1]	Ki [2]	Ki [3]	EC50 [4]	Ki [5]	Ki [6]	Ki [7]	Ki [8]	Ki [9]
CCOP(=O)(COc1ccc(C[C@H](NC(=O)O[C@H]2CO[C@H]3OCC[C@H]32)[C@H](O)CN(C[C@@H](C)CC)S(=O)(=O)c2ccc(OC)cc2)cc1)OCC [Example 3, (3R,3aS,6aR)-hexahydrofuro [2,3-b]furan-3-yl ((2S,3R)-1-(4-((diethoxyphosphoryl)methoxy)phenyl)-3-hydroxy-4-((4-methoxy-N—((S)-2-methylbutyl)phenyl)sulfonamido)butan-2-yl)carbamate]	0.78 ± 0.07 nM	0.16 ± 0.02 nM	10.5 ± 0.9 nM	7.8 nM	3.7 ± 0.3 nM	< 0.005 nM	< 0.005 nM		
CCOP(=O)(COc1ccc(C[C@H](NC(=O)O[C@H]2CO[C@H]3OCC[C@H]32)[C@H](O)CN(CC(CC)CC)S(=O)(=O)c2ccc3c(c2)OCO3)cc1)OCC [Example 4, (3R,3aS,6aR)-hexahydrofuro[2,3-b]furan-3-yl ((2S,3R)-1-(4-((diethoxyphosphoryl)methoxy)phenyl)-4-(N-(2-ethylbutyl)benzo[d][1,3]dioxole-5-sulfonamido)-3-hydroxybutan-2-yl)carbamate]	0.37 ± 0.03 nM	0.08 ± 0.03 nM	6.9 ± 0.5 nM	3.11 nM	1.6 ± 0.06 nM	< 0.005 nM	< 0.005 nM		
CCOP(=O)(COc1ccc(C[C@H](NC(=O)O[C@H]2CO[C@H]3OCC[C@H]32)[C@H](O)CN(C[C@@H](C)CC)S(=O)(=O)c2ccc(N)cc2)cc1)OCC [Example 5, (3R,3aS,6aR)-hexahydrofuro[2,3-b]furan-3-yl ((2S,3R)-4-((4-amino-N—((S)-2-methylbutyl)phenyl)sulfonamido)-1-(4-((diethoxyphosphoryl)methoxy)phenyl)-3-hydroxybutan-2-yl)carbamate]	13.3 ± 3.5 nM	2.31 ± 0.09 nM	259 ± 17 nM	22.9 nM	146 ± 10 nM	< 0.005 nM	< 0.005 nM		
CCOP(=O)(COc1ccc(C[C@H](NC(=O)O[C@H]2CO[C@H]3OCC[C@H]32)[C@H](O)CN(C[C@@H](C)CC)S(=O)(=O)c2ccc(CO)cc2)cc1)OCC [Example 6, (3R,3aS,6aR)-hexahydrofuro[2,3-b]furan-3-yl ((2S,3R)-1-(4-((diethoxyphosphoryl)methoxy)phenyl)-3-hydroxy-4-((4-(hydroxymethyl)-N—((S)-2-methylbutyl)phenyl)sulfonamido)butan-2-yl)carbamate]	4.98 ± 0.4 nM	1.89 ± 0.17 nM	103 ± 3 nM	27.3 nM	52.9 ± 4.2 nM	< 0.005 nM	< 0.005 nM		
CCOP(=O)(COc1ccc(C[C@H](NC(=O)O[C@H]2CO[C@H]3OCC[C@H]32)[C@H](O)CN(CC(CC)CC)S(=O)(=O)c2ccc(OC)cc2)cc1)OCC [Example 8, (3R,3aS,6aR)-hexahydrofuro[2,3-b]furan-3-yl ((2S,3R)-1-(4-((diethoxyphosphoryl)methoxy)phenyl)-4-((N-(2-ethylbutyl)-4-methoxyphenyl)sulfonamido)-3-hydroxybutan-2-yl)carbamate]	0.77 ± 0.06 nM	0.16 ± 0.04 nM	2.2 ± 0.2 nM	5.15 nM	1.26 ± 0.08 nM	< 0.005 nM	< 0.005 nM		
CCOP(=O)(COc1ccc(C[C@H](NC(=O)O[C@H]2CO[C@H]3OCC[C@H]32)[C@H](O)CN(CC(C)C)S(=O)(=O)c2ccc3c(c2)OCO3)cc1)OCC [Example 9, (3R,3aS,6aR)-hexahydrofuro[2,3-b]furan-3-yl ((2S,3R)-1-(4-((diethoxyphosphoryl)methoxy)phenyl)-3-hydroxy-4-(N-isobutylbenzo[d][1,3]dioxole-5-sulfonamido)butan-2-yl)carbamate]	2.2 ± 0.5 nM	0.36 ± 0.05 nM	63.5 ± 15.2 nM	5.67 nM	4.5 ± 0.8 nM	< 0.005 nM	< 0.005 nM		
CCOP(=O)(COc1ccc(C[C@H](NC(=O)O[C@H]2CO[C@H]3OCC[C@H]32)[C@H](O)CN(CC(C)C)S(=O)(=O)c2ccc3ncsc3c2)cc1)OCC [Example 10, (3R,3aS,6aR)-hexahydrofuro[2,3-b]furan-3-yl ((2S,3R)-1-(4-((diethoxyphosphoryl)methoxy)phenyl)-3-hydroxy-4-(N-isobutylbenzo [d]thiazole-6-sulfonamido)butan-2-yl)carbamate]	0.93 ± 0.2 nM	0.23 ± 0.02 nM	15 ± 3.5 nM	10.4 nM	1.9 ± 0.3 nM	< 0.005 nM	< 0.005 nM		
CCOP(=O)(COc1ccc(C[C@H](NC(=O)O[C@H]2CO[C@H]3OCC[C@H]32)[C@H](O)CN(C[C@@H](C)CC)S(=O)(=O)c2ccc3ncsc3c2)cc1)OCC [Example 11, (3R,3aS,6aR)-hexahydrofuro[2,3-b]furan-3-yl ((2S,3R)-1-(4-((diethoxyphosphoryl)methoxy)phenyl)-3-hydroxy-4-(N—((S)-2-methylbutyl)benzo[d]thiazole-6-sulfonamido)butan-2-yl)carbamate]	1.8 ± 0.5 nM	0.09 ± 0.01 nM	9.03 ± 4.21 nM	9.93 nM	1.2 ± 0.4 nM	< 0.005 nM	< 0.005 nM		
CCOP(=O)(COc1ccc(C[C@H](NC(=O)O[C@H]2CO[C@H]3OCC[C@H]32)[C@H](O)CN(CC(CC)CC)S(=O)(=O)c2ccc3ncsc3c2)cc1)OCC [Example 12, (3R,3aS,6aR)-hexahydrofuro[2,3-b]furan-3-yl ((2S,3R)-1-(4-((diethoxyphosphoryl)methoxy)phenyl)-4-(N-(2-ethylbutyl)benzo[d]thiazole-6-sulfonamido)-3-hydroxybutan-2-yl)carbamate]	0.25 ± 0.08 nM			10.7 nM	0.24 ± 0.09 nM	< 0.005 nM	< 0.005 nM		
CCOP(=O)(COc1ccc(C[C@H](NC(=O)O[C@H]2CO[C@H]3OCC[C@H]32)[C@H](O)CN(CC(CC)CC)S(=O)(=O)c2ccc(CO)cc2)cc1)OCC [Example 13, (3R,3aS,6aR)-hexahydrofuro[2,3-b]furan-3-yl ((2S,3R)-1-(4-((diethoxyphosphoryl)methoxy)phenyl)-4-((N-(2-ethylbutyl)-4-(hydroxymethyl)phenyl)sulfonamido)-3-hydroxybutan-2-yl)carbamate]	2.2 ± 0.4 nM	0.6 ± 0.1 nM	81.2 ± 10.8 nM	17 nM	32.1 ± 4.3 nM	< 0.005 nM	< 0.005 nM		
CC(C)(C)NC(=O)[C@@H]1CN(Cc2cccnc2)CCN1C[C@@H](O)C[C@@H](Cc1ccccc1)C(=O)N[C@H]1c2ccccc2C[C@H]1O [IDV, indinavir, reference compound]								60000 nM	62700 nM

Reference: US11542288B2, “Antiviral compounds” (priority 2020, dated 2023)
